# Measurements reported in patent US12708607B2, “Thromboxane receptor antagonist formulations” (ATXA THERAPEUTICS LIMITED, priority 2020, dated 2026).
# Like-named read-outs stand apart in the source and are kept apart here.
# Key:
# [1] = test system: TP (thromboxane A2 receptor); test: whole blood platelet aggregation ex vivo after oral dosing, U46619-induced; format: in vivo, cynomolgus monkey; settings: 100 mg/kg BID oral, Day 14; 1 μM U46619
# Procedure: (§1) Whole blood platelet aggregation assays were performed ex vivo in blood samples taken from the NHPs (n=3) administered 100 mg/kg NTP42:KVA4, BID (200 mg/kg/day) for 14 days. In this type of platelet aggregation assay, a reduction in platelet numbers is indicative of platelet aggregation. Blood was collected prior to (pre-dose), and at 45 min- and 24 h-following the first daily dose, and platelet numbers determined in blood samples at baseline (untreated), and in blood samples incubated with drug vehicle, the thromboxane mimetic, U46619 or, as control, other platelet agonists (e.g., ADP, collagen, thrombin, ristocetin, epinephrine). Baseline platelet counts ranged from 120-190×10^3 platelets/μl.
# (§2) Whole blood platelet aggregation assays were performed ex vivo in blood samples taken from the NHPs (n=3) administered 100 mg/kg NTP42:KVA4, BID (200 mg/kg/day) for 14 days. Blood was collected prior to (pre-dose), and at 45 min- and 24 h-following the first daily dose, and platelet numbers determined in blood samples at baseline (untreated), and in blood samples incubated with drug vehicle, the thromboxane mimetic, U46619 or, as control, 50 μM ADP. In this assay, a reduction in platelet numbers is indicative of platelet aggregation.
# [2] = test system: platelet aggregation induced by other platelet agonists; test: whole blood platelet aggregation ex vivo after oral dosing, other platelet agonists (e.g. 50 μM ADP); format: in vivo, cynomolgus monkey; settings: 100 mg/kg BID oral, Day 14
# Procedure: as §1, §2
# [3] = NTP42 levels in NHP plasma after repeat oral dosing; format: in vivo, cynomolgus monkey; settings: for Cmax at 14 days: cynomolgus monkey, plasma, oral, 14 days repeat dosing of NTP42:KVA4 at 200 mg/kg/day
# [4] = test system: MCT-induced PAH; settings: Mulvaney et al. 2020; cited from earlier work
# [5] = test system: Su/Hx-induced PAH; settings: Mulvaney et al. 2020; cited from earlier work
structure (smiles),measurement,setting,value
CC(C)(C)NC(=O)NS(=O)(=O)c1cc(C#N)ccc1Oc1cccc(-c2ccc(OC(F)F)cc2)c1 [NTP42],TXA2 (U46619)-induced / TP-mediated platelet aggregation ex vivo,[1],selectively inhibited
same,aggregation induced by other platelet agonists,[2],did not affect
same,NTP42 levels in NHP plasma 24 h post-dosing,"[3]; 24 h post-dosing, 200 mg/kg/day for 14 days",still detectable
same,Cmax at 14 days,[3]; read-out: Cmax of NTP42 in NHP plasma,13200 ng/mL
same,Cmax at 14 days,"[3]; read-out: Cmax of NTP42 in NHP plasma, molar equivalent",25 µM
same,NTP42 in NHP plasma prior to the first daily dose,"[3]; pre-dose, Day 14",present
same,efficacy of non-formulated drug in MCT-induced model of PAH,[4],has shown efficacy
same,efficacy of non-formulated drug in Su/Hx-induced model of PAH,[5],has shown efficacy
